Assay results: patent US12473298B2, “Amide compounds, preparation method therefor, and use thereof in the medical field” (Shanghai Synergy Pharmaceutical Sciences Co., Ltd., priority 2019, dated 2025)
pIC50: −log10 of the molar value. Read-outs that look alike come from different tables or passages of the source.

Tests used:
[1] = system: human diffuse large cell lymphoma B lymphocytes (Pfeiffer cell); experiment: Pharmacodynamic experiment, Pfeiffer transplanted tumor model in mice; format: in vivo, mice (beige SCID); settings: intragastrically, once a day for 21 days; for inhibition in vivo at 100 mg/kg: Mus musculus, Pfeiffer, po, 504 h, read-out: inhibited tumor growth
From the text: Under sterile conditions, human diffuse large cell lymphoma B lymphocytes (Pfeiffer cell) in logarithmic growth stage were digested and mixed with Matrigel and transplanted subcutaneously on the right back of mice (beige SCID) with severe combined immunodeficiency disease.

[2] = Pharmacokinetic experiment in rats; format: in vivo, SD rats
Procedure: A certain amount of compound was weighted and dissolved in 0.1% Tween under vortex and ultrasound, and 0.5% carboxymethyl cellulose sodium (CMC-NA) solution was added to form a uniform solution.

[3] = system: human diffuse large B-cell lymphoma cells (Karpas 422 cell); experiment: Karpas 422 cell proliferation, Calcein AM staining; format: cell-based; settings: for pIC50: data of 14th day, read-out: Karpas422 Proliferation IC50 Nanomoles per Liter; for IC50: KARPAS-422, read-out: Karpas422 Proliferation IC50 Nanomoles per Liter (nM)
[4] = system: human diffuse large cell lymphoma B lymphocytes (Pfeiffer cell); experiment: Pfeiffer cell proliferation, Calcein AM staining; format: cell-based; settings: for pIC50: data of 14th day, read-out: Pfeiffer Proliferation IC50 Nanomoles per Liter; for IC50: read-out: Pfeiffer Proliferation IC50 Nanomoles per Liter (nM)
From the text: The diffuse large cell lymphoma B lymphocytes (Pfeiffer cells) were collected and counted when growing well.

wild-type EZH2 = wild-type EZH2 (Homo sapiens (Human), UniProt Q15910); experiment: radiometric assay, activity to wild-type EZH2 of PRC2
Procedure: 25 μL of reaction solution was transferred to a scintillation plate, which was incubated at room temperature for 1 hour (h) and washed with deionized water and 0.1% Tween 20 for three times. A PerkinElmer liquid scintillation/luminescence counter was used to read the value, and GraphPad Prism 5 was used to calculate the median inhibitory concentration (IC50) of the compounds.

Mutant type EZH2(Y641N) = Mutant type EZH2(Y641N) (Homo sapiens (Human), UniProt Q15910, Y641N); experiment: AlphaLISA, mutant type PRC2 complex EZH2(Y641N); format: biochemical; settings: read-out: Mutant type EZH2(Y641N) IC50 Nanomoles per Liter
Mutant type EZH2(Y641F) = Mutant type EZH2(Y641F) (Homo sapiens (Human), UniProt Q15910, Y641F); experiment: AlphaLISA, mutant type PRC2 complex EZH2(Y641F); format: biochemical; settings: read-out: Mutant type EZH2(Y641F) IC50 Nanomoles per Liter
Mutant type EZH2(A677G) = Mutant type EZH2(A677G) (Homo sapiens (Human), UniProt Q15910, A677G); experiment: AlphaLISA, mutant type PRC2 complex EZH2(A677G); format: biochemical
[5] = male, SD, rat, plasma, rats, Intravenous-Dose 4 mg/kg, read-out: Area Curve (AUC, ng/mL · h)
[6] = male, SD, rat, plasma; rats, Intravenous-Dose 4 mg/kg; read-out: Half life T1/2, h) (converted)
[7] = male, SD, rat, plasma, rats, Oral-Dose 20 mg/kg, read-out: Area Curve (AUC, ng/mL · h)
[8] = male, SD, rat, plasma, rats, Oral-Dose 20 mg/kg, read-out: Blood Drug level (Cmax, ng/mL)
[9] = male, SD, rat, plasma, rats, oral 20 mg/kg vs intravenous 4 mg/kg, read-out: Bioavailability (P %)
[10] = read-out: Mutant type EZH2(A677G) IC59 Nanomoles per Liter
[11] = read-out: Wild-type EZH2 IC50 Nanomoles per Liter
[12] = male, SD, rat, in vivo, iv, 4 mg/kg
[13] = male, SD, rat, in vivo, po, 20 mg/kg

wild-type EZH2, sequence (Q15910 whole entry): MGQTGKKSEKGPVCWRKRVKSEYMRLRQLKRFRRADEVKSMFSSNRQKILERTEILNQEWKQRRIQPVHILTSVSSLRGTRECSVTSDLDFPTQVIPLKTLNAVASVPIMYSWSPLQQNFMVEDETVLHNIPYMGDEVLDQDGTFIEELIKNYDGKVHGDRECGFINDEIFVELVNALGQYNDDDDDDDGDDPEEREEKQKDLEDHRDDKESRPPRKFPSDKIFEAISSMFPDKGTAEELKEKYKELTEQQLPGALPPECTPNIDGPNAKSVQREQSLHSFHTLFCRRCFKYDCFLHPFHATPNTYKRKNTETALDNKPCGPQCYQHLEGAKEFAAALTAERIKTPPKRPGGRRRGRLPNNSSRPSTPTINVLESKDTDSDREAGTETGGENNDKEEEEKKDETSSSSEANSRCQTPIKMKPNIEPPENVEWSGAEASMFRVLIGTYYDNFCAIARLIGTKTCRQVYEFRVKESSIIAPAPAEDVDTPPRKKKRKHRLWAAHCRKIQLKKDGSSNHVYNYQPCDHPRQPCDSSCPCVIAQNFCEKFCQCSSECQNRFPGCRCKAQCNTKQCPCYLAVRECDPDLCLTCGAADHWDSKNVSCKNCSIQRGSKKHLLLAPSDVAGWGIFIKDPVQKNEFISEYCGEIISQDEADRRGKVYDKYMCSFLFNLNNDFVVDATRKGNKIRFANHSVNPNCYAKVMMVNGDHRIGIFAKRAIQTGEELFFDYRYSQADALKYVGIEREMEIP
wild-type EZH2, sequence (O75530 whole entry partner): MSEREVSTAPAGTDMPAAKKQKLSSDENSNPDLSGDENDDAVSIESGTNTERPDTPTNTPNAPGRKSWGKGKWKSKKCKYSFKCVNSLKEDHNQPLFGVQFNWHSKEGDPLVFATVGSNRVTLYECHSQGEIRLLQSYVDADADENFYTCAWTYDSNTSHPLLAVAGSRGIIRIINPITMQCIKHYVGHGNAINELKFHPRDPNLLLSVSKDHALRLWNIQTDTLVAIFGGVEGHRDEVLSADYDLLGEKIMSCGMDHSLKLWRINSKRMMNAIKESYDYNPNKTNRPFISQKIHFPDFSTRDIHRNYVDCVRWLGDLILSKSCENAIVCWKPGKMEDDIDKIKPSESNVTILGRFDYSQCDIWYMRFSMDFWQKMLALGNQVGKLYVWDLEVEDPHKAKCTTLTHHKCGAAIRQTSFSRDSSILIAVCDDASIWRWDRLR
wild-type EZH2, sequence (Q15022 whole entry partner): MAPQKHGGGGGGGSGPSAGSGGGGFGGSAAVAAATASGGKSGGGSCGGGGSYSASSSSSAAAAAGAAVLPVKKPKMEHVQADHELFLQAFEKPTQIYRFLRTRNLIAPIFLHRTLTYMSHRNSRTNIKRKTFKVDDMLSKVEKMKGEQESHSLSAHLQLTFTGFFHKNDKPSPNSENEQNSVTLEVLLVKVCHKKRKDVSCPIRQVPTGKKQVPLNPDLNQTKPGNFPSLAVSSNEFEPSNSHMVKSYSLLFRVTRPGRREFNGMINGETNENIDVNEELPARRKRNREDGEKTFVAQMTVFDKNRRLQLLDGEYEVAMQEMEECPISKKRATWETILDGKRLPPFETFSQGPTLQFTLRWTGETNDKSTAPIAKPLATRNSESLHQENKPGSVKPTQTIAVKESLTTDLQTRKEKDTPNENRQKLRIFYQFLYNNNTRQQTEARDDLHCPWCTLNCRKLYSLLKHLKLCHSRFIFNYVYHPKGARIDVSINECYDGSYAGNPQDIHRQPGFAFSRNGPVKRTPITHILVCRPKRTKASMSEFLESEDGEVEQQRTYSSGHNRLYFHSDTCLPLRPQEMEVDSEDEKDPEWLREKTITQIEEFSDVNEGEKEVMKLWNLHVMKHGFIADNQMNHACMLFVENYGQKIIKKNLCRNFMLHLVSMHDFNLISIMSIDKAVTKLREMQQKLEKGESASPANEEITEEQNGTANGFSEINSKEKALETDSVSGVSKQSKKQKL
Mutant type EZH2(Y641N), sequence (Q15910 whole entry Y641N): as the sequence (Q15910 whole entry) above, with Y641N counted along it
Mutant type EZH2(Y641N), sequence (O75530 whole entry partner): as the sequence (O75530 whole entry partner) above
Mutant type EZH2(Y641N), sequence (Q15022 whole entry partner): as the sequence (Q15022 whole entry partner) above
Mutant type EZH2(Y641N), sequence (Q09028 whole entry partner): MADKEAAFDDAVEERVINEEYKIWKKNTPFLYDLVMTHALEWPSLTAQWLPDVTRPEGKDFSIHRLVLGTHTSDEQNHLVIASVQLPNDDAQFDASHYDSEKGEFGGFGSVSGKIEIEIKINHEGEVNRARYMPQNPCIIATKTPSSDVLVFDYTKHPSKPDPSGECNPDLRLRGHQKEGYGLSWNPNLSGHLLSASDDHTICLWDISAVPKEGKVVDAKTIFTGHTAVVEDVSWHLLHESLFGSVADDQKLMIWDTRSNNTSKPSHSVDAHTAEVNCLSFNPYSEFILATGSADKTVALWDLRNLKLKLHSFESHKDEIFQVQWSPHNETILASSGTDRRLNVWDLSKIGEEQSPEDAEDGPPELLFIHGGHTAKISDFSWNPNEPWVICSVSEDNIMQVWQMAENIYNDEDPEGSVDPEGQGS
Mutant type EZH2(Y641N), sequence (Q6ZN18 whole entry partner): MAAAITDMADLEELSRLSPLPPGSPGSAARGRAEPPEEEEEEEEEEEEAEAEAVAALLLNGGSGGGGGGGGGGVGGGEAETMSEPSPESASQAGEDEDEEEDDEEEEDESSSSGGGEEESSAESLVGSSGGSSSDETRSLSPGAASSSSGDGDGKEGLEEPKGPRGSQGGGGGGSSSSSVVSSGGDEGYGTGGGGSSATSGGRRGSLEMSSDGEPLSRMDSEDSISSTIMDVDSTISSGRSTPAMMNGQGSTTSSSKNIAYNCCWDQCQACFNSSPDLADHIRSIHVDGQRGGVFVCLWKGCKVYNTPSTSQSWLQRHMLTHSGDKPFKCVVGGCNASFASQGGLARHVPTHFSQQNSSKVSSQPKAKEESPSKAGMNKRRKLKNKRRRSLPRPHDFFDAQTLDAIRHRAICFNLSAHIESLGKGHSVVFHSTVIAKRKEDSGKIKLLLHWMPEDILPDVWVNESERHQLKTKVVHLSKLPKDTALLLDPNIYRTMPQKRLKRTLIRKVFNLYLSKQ
Mutant type EZH2(A677G), sequence (Q15910 whole entry A677G): as the sequence (Q15910 whole entry) above, with A677G counted along it
Mutant type EZH2(A677G), sequence (O75530 whole entry partner): as the sequence (O75530 whole entry partner) above
Mutant type EZH2(A677G), sequence (Q15022 whole entry partner): as the sequence (Q15022 whole entry partner) above
Mutant type EZH2(A677G), sequence (Q09028 whole entry partner): as the sequence (Q09028 whole entry partner) above
Mutant type EZH2(A677G), sequence (Q6ZN18 whole entry partner): as the sequence (Q6ZN18 whole entry partner) above
Mutant type EZH2(Y641F), sequence (Q15910 whole entry Y641F): as the sequence (Q15910 whole entry) above, with Y641F counted along it
Mutant type EZH2(Y641F), sequence (O75530 whole entry partner): as the sequence (O75530 whole entry partner) above
Mutant type EZH2(Y641F), sequence (Q15022 whole entry partner): as the sequence (Q15022 whole entry partner) above
Mutant type EZH2(Y641F), sequence (Q09028 whole entry partner): as the sequence (Q09028 whole entry partner) above
Mutant type EZH2(Y641F), sequence (Q6ZN18 whole entry partner): as the sequence (Q6ZN18 whole entry partner) above

Structure (SMILES) | AUC [2, 5] [ng·h/mL] | half-life [2, 6] [h] | AUC [2, 7] [ng·h/mL] | Cmax [2, 8] [ng/mL] | bioavailability [2, 9] [%] | pIC50 ([3]; Homo sapiens, KARPAS-422) | pIC50 ([4]; Homo sapiens, Pfeiffer) | pIC50 (Mutant type EZH2(Y641N)) | pIC50 (Mutant type EZH2(Y641F)) | pIC50 (Mutant type EZH2(A677G); [10]) | pIC50 (wild-type EZH2; [11]) | IC50 (Mutant type EZH2(A677G); [10]) [nM] | inhibition in vivo at 100 mg/kg [1] [%] | other results
CCN(c1cc(-c2ccc3c(c2)NCC32CCOCC2)cc(C(=O)NCc2c(OC)cc(C)[nH]c2=O)c1C)C1CCNCC1 [Example 5, 3-(ethyl(piperidin-4-yl)amino)-N-((4-methoxy-6-methyl-2-oxo-1,2-dihydropyridin-3-yl)methyl)-2-methyl-5-(2′,3′,5′,6′-tetrahydrospiro[indoline-3,4′-pyran]-6-yl)benzamide] | 912 | 1.05 | 1570 | 453 | 34.3 |  |  |  |  |  |  |  | 98 | 
CCN(c1cc(-c2ccc3c(c2)NCC32CCN(C)CC2)cc(C(=O)NCc2c(C)cc(C)[nH]c2=O)c1C)C1CCOCC1 [Example 7, N-((4,6-dimethyl-2-oxo-1,2-dihydropyridin-3-yl)methyl)-3-(ethyl(tetrahydro-2H-pyran-4-yl)amino)-2-methyl-5-(1′-methylspiro[dihydroindole-3,4′-piperidine]-6-yl)benzamide] |  |  |  |  |  |  |  |  |  |  |  |  |  | inhibited tumor growth ([1]; 100 mg/kg): 95%; Area Curve (AUC, ng/mL · h) ([2]; rats, Intravenous-Dose 4 mg/kg): 937.25 ng·h/mL; Half life T1/2, h) ([2]; rats, Intravenous-Dose 4 mg/kg): 1.64 h; Area Curve (AUC, ng/mL · h) ([2]; rats, Oral-Dose 20 mg/kg): 1435.87 ng·h/mL; Blood Drug level (Cmax, ng/mL) ([2]; rats, Oral-Dose 20 mg/kg): 405.10 ng/mL; Bioavailability (P %) ([2]; rats, oral 20 mg/kg vs intravenous 4 mg/kg): 30.64%
CCN(c1cc(-c2ccc3c(c2)N(C)C(=O)C32CCNCC2)cc(C(=O)NCc2c(OC)cc(C)[nH]c2=O)c1C)C1CCOCC1 [Example 34, 3-(ethyl(tetrahydro-2H-pyran-4-yl)amino)-N-((4-methoxy-6-methyl-2-carbonyl-1,2-dihydropyridin-3-yl)methyl)-2-methyl-5-(1-methyl-2-carbonylspiro[dihydroindole-3,4′-piperidine]-6-yl)benzamide] | 966 | 1.32 | 1750 | 594 | 36.3 |  |  |  |  |  |  |  | 96 | 
CCN(c1cc(-c2ccc3c(c2)N(C(C)C(C)C)CC32CCOCC2)c(Cl)c(C(=O)NCc2c(C)cc(C)[nH]c2=O)c1C)C1CCOCC1 (stereo not shown) [Example 55, 2-chloro-N-((4,6-dimethyl-2-oxo-1,2-dihydropyridin-3-yl)methyl)-5-(ethyl(tetrahydro-2H-pyran-4-yl)amino)-6-methyl-3-(1-(3-methylbutyl-2-yl)-2′,3′,5′,6′-tetrahydrospiro[dihydroindole-3,4′-pyran]-6-yl)benzamide] | 933 | 1.53 | 1270 | 438 | 27.1 | 9.01 | 9.19 | 9.52 | 9.24 | 9.38 |  |  |  | pIC50 (wild-type EZH2): 9.20
CCN(c1cc(-c2ccc3c(c2)NC(=O)C32CCN(C3COC3)CC2)cc(C(=O)NCc2c(C)cc(C)[nH]c2=O)c1C)C1CCOCC1 [Example 84, N-((4,6-dimethyl-2-oxo-1,2-dihydropyridin-3-yl)methyl)-3-(ethyl(tetrahydro-2H-pyran-4-yl)amino)-2-methyl-5-(1′-(oxetan-3-yl)-2-oxospiro[dihydroindole-3,4′-piperidine]-6-yl)benzamide] |  |  |  |  |  | 8.73 | 8.76 | 9.60 | 9.20 | 9.33 | 8.67 |  |  | AUC [2, 12]: 933 ng·h/mL; half-life [2, 12]: 1.38 h; AUC [2, 13]: 1190 ng·h/mL; Cmax [2, 13]: 501 ng/mL; bioavailability [2, 13]: 25.4%
CCN(c1cc(-c2ccc3c(c2)C2(CC=C(F)CC2)C(=O)N3)cc(C(=O)NCc2c(C)cc(C)[nH]c2=O)c1C)C1CCOCC1 (stereo not shown) [Example 118, N-((4,6-dimethyl-2-carbonyl-1,2-dihydropyridin-3-yl)methyl)-3-(ethyl(tetrahydro-2H-pyran-4-yl)amino)-5-(4-fluoro-2′-carbonylspiro[cyclohexano-1,3′-dihydroindole]-3-ene-5′-yl)-2-methylbenzamide] |  |  |  |  |  |  |  | 9.49 | 9.24 |  |  |  |  | pIC50 (wild-type EZH2): 9.04; IC50 ([3]; Homo sapiens): 1.68 nM; IC50 ([4]; Homo sapiens, Pfeiffer): 1.05 nM; pIC50 (Mutant type EZH2(A677G)): 9.35
CCN(c1cc(-c2ccc3c(c2)C2(CCC(F)CC2)C(=O)N3)cc(C(=O)NCc2c(C)cc(C)[nH]c2=O)c1C)C1CCOCC1 (stereo not shown) [Example 119, 5-(4-Fluoro-2′-carbonylspiro[cyclohexano-1,3′-dihydroindole]-5′-yl)-N-((4,6-dimethyl-2-carbonyl-1,2-dihydropyridin-3-yl)methyl)-3-(ethyl(tetrahydro-2H-pyran-4-yl)amino)-2-methylbenzamide] |  |  |  |  |  |  |  | 9.20 | 9.02 |  |  |  |  | pIC50 (wild-type EZH2): 9.01; IC50 ([3]; Homo sapiens): 4.15 nM; IC50 ([4]; Homo sapiens, Pfeiffer): 3.52 nM; pIC50 (Mutant type EZH2(A677G)): 9.12

More lines, main results first:

AUC [2, 5] [ng·h/mL] | half-life [2, 6] [h] | AUC [2, 7] [ng·h/mL] | Cmax [2, 8] [ng/mL] | bioavailability [2, 9] [%] | pIC50 ([3]; Homo sapiens, KARPAS-422) | pIC50 ([4]; Homo sapiens, Pfeiffer) | pIC50 (Mutant type EZH2(Y641N)) | pIC50 (Mutant type EZH2(Y641F)) | pIC50 (Mutant type EZH2(A677G); [10]) | pIC50 (wild-type EZH2; [11]) | IC50 (Mutant type EZH2(A677G); [10]) [nM] | Structure (SMILES) | inhibition in vivo at 100 mg/kg [1] [%] | other results
896 | 1.37 | 1510 | 412 | 33.7 | 9.02 | 9.72 |  |  |  |  |  | CCN(c1cc(-c2cc3c(cc2F)C2(CCOCC2)C(=O)N3C)cc(C(=O)NCc2c(C)cc(C)[nH]c2=O)c1C)C1CCOCC1 [Example 12, N-((4,6-dimethyl-2-carbonyl-1,2-dihydropyridin-3-yl)methyl)-3-(ethyl(tetrahydro-2H-pyran-4-yl)amino)-5-(5-fluoro-1-methyl-2-carbonyl-2′,3′,5′,6′-tetrahydrospiro[dihydroindole-3,4′-pyran]-6-yl)-2-methylbenzamide] | 99 | 
 |  |  |  |  | 8.09 | 8.15 |  |  | 9.17 | 9.04 |  | CCN(c1cc(-c2ccc3c(c2)C2(CCOCC2)C(=O)N3)cc(C(=O)NCc2c(C)cc(C)[nH]c2=O)c1C)C1CCOCC1 [Example 77, N-((4,6-dimethyl-2-oxo-1,2-dihydropyridin-3-yl)methyl)-3-(ethyl(tetrahydro-2H-pyran-4-yl)amino)-2-methyl-5-(2-oxo-2′,3′,5′,6′-tetrahydrospiro[dihydroindole-3,4′-pyran]-5-yl)benzamide] | 100 | 
936 | 1.26 | 1190 | 494 | 25.5 | 8.24 | 8.38 | 9.32 | 9.09 | 9.29 | 8.99 |  | CCN(c1cc(-c2ccc3c(c2)NC(=O)C32CCOCC2)cc(C(=O)NCc2c(OC)cc(C)[nH]c2=O)c1C)C1CCOCC1OC (stereo not shown) [Example 112, 3-(Ethyl(3-methoxytetrahydro-2H-pyran-4-yl)amino)-N-((4-methoxy-6-methyl-2-oxo-1,2-dihydropyridin-3-yl)methyl)-2-methyl-5-(2-oxo-2′,3′,5′,6′-tetrahydrospiro[dihydroindole-3,4′-pyran]-6-yl)benzamide] |  | 
 |  |  |  |  | 8.35 | 8.53 | 9.32 | 9.17 | 9.28 | 8.90 |  | CCN(c1cc(-c2ccc3c(c2)NC(=O)C32CCOCC2)cc(C(=O)NCc2c(OC)cc(C)[nH]c2=O)c1C)C1CCC(N(C)CCOC)CC1 (stereo not shown) [Example 120, 3-(Ethyl(4-((2-methoxyethyl)(methyl)amino)cyclohexyl)amino)-N-((4-methoxy-6-methyl-2-oxo-1,2-dihydropyridin-3-yl)methyl)-2-methyl-5-(2-oxo-2′,3′,5′,6′-tetrahydrospiro[dihydroindole-3,4′-pyran]-6-yl)benzamide] |  | 
 |  |  |  |  | 8.45 | 8.63 | 9.28 | 9.13 | 9.17 | 8.98 |  | CCN(c1cc(-c2ccc3c(c2)NC(=O)C32CCOCC2)cc(C(=O)NCc2c(C)cc(C)[nH]c2=O)c1C)C1CCC(N(C)C2COC2)CC1 (stereo not shown) [Example 121, N-((4,6-dimethyl-2-oxo-1,2-dihydropyridin-3-yl)methyl)-3-(ethyl(4-(methyl(oxetan-3-yl)amino)cyclohexyl)amino)-2-methyl-5-(2-oxo-2′,3′,5′,6′-tetrahydrospiro[dihydroindole-3,4′-pyran]-6-yl)benzamide] |  | 
 |  |  |  |  |  |  | 9.28 | 9.04 |  | 8.94 | 0.72 | CCN(c1cc(-c2ccc3c(c2)C2(CCOCC2)C(=O)N3C)cc(C(=O)NCc2c(OC)cc(C)[nH]c2=O)c1C)C1CCN(CC(F)(F)F)CC1 [Example 123, 3-(Ethyl(1-(2,2,2-trifluoroethyl)piperidin-4-yl)amino)-N-((4-methoxy-6-methyl-2-oxo-1,2-dihydropyridin-3-yl)methyl)-2-methyl-5-(1-methyl-2-oxo-2′,3′,5′,6′-tetrahydrospiro[dihydroindole-3,4′-pyran]-5-yl)benzamide] |  | pIC50 [3]: 8.49; pIC50 [4]: 8.55
